The assay has as its system MDA-MB-468 breast. Description: NCI-60 cell line screen, 48 h.

Molecules are shown by their SMILES. Several values for one entry are separate records, joined by “and”; a condition that tells them apart may be missing. Identical values can stand only once.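 Growth conditions: 96-well plates. Treatment: test compound, 48 hours, 5 concentrations. Analysis: linear interpolation between bracketing concentrations; unreached endpoints set to highest concentration. GI50: concentration for 50% inhibition of growth. TGI: concentration producing complete growth inhibition.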

On to `C#C[C@@]1(O)[C@@H](CO)O[C@@H](n2cc(F)c3c(N)ncnc32)[C@@H]1O`, for which the GI50 was 301 nM and the TGI worked out at 1530 nM.
For the molecule `C/C(=C\c1ccn(-c2ccc(N)cc2)n1)[C@@H]1C[C@@H]2O[C@]2(C)CCC[C@H](C)[C@H](O)[C@@H](C)C(=O)C(C)(C)[C@@H](O)CC(=O)O1`, the GI50 is 39.1 nM and the TGI came out at 1190 nM.
On the same counts, the results for `COC(=O)c1c2c(c(C)[n+]([O-])c1C)C(=O)C(NCc1ccc(F)c(F)c1)=CC2=O` are 1160 nM and 3070 nM.
For `COc1cc(C(=O)n2nc(N3CCN(C)CC3)c3cc(N)ccc32)cc(OC)c1OC`, in that order: 2970 nM and 9380 nM.
As to `COc1ccc(-c2nc(-c3nc4cc(C)c(C)cc4[nH]3)cc3c2[nH]c2ccccc23)cc1`, the GI50 is 1990 nM and the TGI was found to be 4780 nM.
Consider `Cc1ccc2sc3c(NCCCNCCO)nc4ccccc4c3c(=O)c2c1`, for which the GI50 was 1540 nM and the TGI amounted to 3160 nM.
For `CN1CCN(Cc2ccc(Nc3ncc(Cl)c(Nc4ccccc4S(=O)(=O)N(C)C)n3)cc2)CC1`, in that order: 52.5 nM and 268 nM.
On the same counts, the results for `COc1ccc(Nc2ccnc(NCCCNc3ccnc4cc(Cl)ccc34)n2)cc1` are 871 nM and 2420 nM.
Turning to `COc1cccc2c1c1nc3cc(C)c(C)cc3nc1n2CCN(C)C`, the GI50 was 1540 nM and the TGI worked out at 4140 nM.
With `CCOC(=O)c1c(Cl)c2c(n1Cc1cc(OC)cc(OC)c1)-c1oncc1CCC2`, the GI50 was 526 nM and the TGI is more than 100000 nM.
Turning to `Cc1cccc(N=C2c3cc([N+](=O)[O-])ccc3-c3c2cc([N+](=O)[O-])cc3[N+](=O)[O-])c1`, the GI50 is 1670 nM and the TGI was 3320 nM.
On to `CCCCCc1ccc(S(=O)(=O)Nc2cc(-c3csc(NC(=O)CN4CCN(C)CC4)n3)ccc2N2CCN(C)CC2)cc1`, for which the GI50 is 901 nM and the TGI was 2020 nM.
On the same counts, the results for `O=C1/C(=C/c2ccc(Cl)cc2)CN(C(=O)C(Cl)Cl)C/C1=C\c1ccc(Cl)cc1` are 182 nM and 376 nM.
For `CO[C@H]1CC[C@@]2(C)C(=CC[C@H]3[C@@H]4C[C@H](O)C[C@@]4(C)CC[C@@H]32)C1`, in that order: 2410 nM and 9070 nM.
Regarding `CC[C@H](C)C(=O)O[C@H]1CCC=C2C=C[C@H](C)C(CCC3C[C@@H](O)CC(=O)O3)[C@H]21` (stereo partly specified), the GI50 was 5850 nM and the TGI is 30800 nM.
On the same counts, the results for `COc1cnc2c(c1)C(=O)c1c-2n(CCCN2CCN(C)CC2)c(=O)c2cc(Cl)ccc12` are 1190 nM and 14800 nM.
On to `CCNc1nc(N2CC(=O)Nc3cc(OC)ccc32)c2ccccc2n1`, for which the GI50 was 0.26 nM.
On to `CN(C)CC1CCn2c(c(C3=C(c4cn(C)c5ccccc45)C(=O)NC3=O)c3ccccc32)C1` (stereo unspecified), for which the GI50 was 3510 nM and the TGI came to 7570 nM.
`COC(=O)[C@@H](C)C[C@H](Cc1ccccc1)NC(=O)c1csc([C@@H](C[C@H](C(C)C)N(C)C(=O)[C@@H](NC(=O)[C@H]2CCCCN2C)C(C)C)OC(C)=O)n1` gave a TGI of more than 25000 nM.
As for `NC(=O)Oc1cc(OC(N)=O)cc(N(CCCl)CCCl)c1`, the GI50 was 1710 nM and the TGI is 13000 nM.
On the same counts, the results for `Cn1cc(C2=C(c3c4n(c5ccccc35)CCC(CN)CC4)C(=O)NC2=O)c2ccccc21` (stereo unspecified) are 3720 nM and 7510 nM.
For `CCCCCCCCCCCCCCCCOCCCOP(=O)(O)C1CCCN(O)C1=O` (stereo unspecified), in that order: 2570 nM and 9930 nM.
Regarding `Cc1ccc(S(=O)(=O)n2cc(C(=O)C(=O)Nc3ccncc3)c3ccccc32)cc1`, the GI50 was 1100 nM and the TGI turned out to be 9530 nM.
For the molecule `CN1CCN(Cc2ccc(NC(=O)c3cncc(C#Cc4c(N)ncc5cc(F)ccc45)c3)cc2C(F)(F)F)CC1`, the GI50 is 6300 nM and the TGI is 15400 nM.
With `CO[C@H](C(=O)N[C@@H](CCCCNC(=O)OCc1ccccc1)C(=O)OC(C)(C)C)[C@@H]1Cc2cc3cc(OC4CC(OC5CC(O)C(O)C(C)O5)C(O)C(C)O4)c(C)c(O)c3c(O)c2C(=O)[C@H]1OC1CC(OC2CC(OC3CC(C)(O)C(O)C(C)O3)C(O)C(C)O2)C(O)C(C)O1` (stereo partly specified), the GI50 was 764 nM and the TGI was 2920 nM.
As for `COc1ccc(F)cc1C(=O)c1cnc(NC2CCN(S(C)(=O)=O)CC2)nc1N`, the GI50 is 3950 nM and the TGI came to 9870 nM.
As to `Cc1ccc(NC(=O)c2ccnc(N3CCCC3)c2)cc1-c1ccc(C(=O)NCC2CC2)cc1`, the GI50 is more than 25000 nM and the TGI was more than 25000 nM.
Regarding `[N-]=[N+]=CC(=O)OCC(N)C(=O)O` (stereo unspecified), the GI50 is 1210 nM and the TGI came to 11100 nM.
`COc1cc2c3c(n(C4CCNCC4)c(=O)c2cc1OC)-c1cc2c(cc1C3=O)OCO2`: the GI50 was 455 nM and the TGI came out at 1850 nM.
`CCN1CCN(S(=O)(=O)c2oc(-c3ccc(Cl)cc3)nc2C#N)CC1`: the GI50 was 2210 nM and the TGI came to 5160 nM.
On the same counts, the results for `COC(=O)Nc1nc2ccc(Oc3ccc(NC(=O)Nc4cccc(Cl)c4)cc3)cc2[nH]1` are 269 nM and 2200 nM.
On to `O=C(O)CCC1CCC(c2cc(F)ccc2F)(S(=O)(=O)c2ccc(Cl)cc2)CC1` (stereo unspecified), for which the GI50 is 13100 nM and 45300 nM; the TGI is 52500 nM and > 100000 nM.
Take `O=C1/C(=C/C(Cl)=C/c2ccccc2)SC(=S)N1CCc1ccc(O)cc1`: the GI50 is 1890 nM and the TGI was 6040 nM.
On the same counts, the results for `O=C(Cn1ccnc1[N+](=O)[O-])NCC(F)(F)C(F)(F)F` are more than 100000 nM and more than 100000 nM.
On the same counts, the results for `Cc1ccc(C(=O)NC2CCCCC2)cc1-c1ccc(C(=O)NCC2CC2)cc1` are more than 23600 nM and more than 25000 nM.
For `C=C[C@]1(C)C=C2C(=O)[C@@]3(O)OC(=O)[C@@]4(CCCC(C)(C)[C@H]34)[C@@]2(O)CC1`, in that order: 414 nM and 2000 nM.
With `CC/C(=C(\CC)c1ccc(OCCN(CC)CC)cc1)c1ccc(OCCN(CC)CC)cc1`, the GI50 was 1590 nM and the TGI worked out at 3640 nM.
Regarding `O=C(Nc1ccc(Br)c(Cl)c1)c1cc(F)ccc1O`, the GI50 was 942 nM and the TGI came out at 3350 nM.
For `Clc1ccc(CO/N=C(\Cn2ccnc2)c2ccc(Cl)cc2Cl)c(Cl)c1`, in that order: 1590 nM and 3060 nM.

The values are drawn from PubChem BioAssay (NCI).
